Assay results reported in patent US9061054B2, “ErbB-2 receptor targeting peptide” (The Curators of The University of Missouri, priority 2002, dated 2015).
Numbered stars: 1 amine (or outer) side, 2 acyl side, 3 side chain; on linkers, the order of the positions; unused ones are H or OH. Bridge positions count the residues as written; N and C are the ends. Square brackets hold non-standard residues; d marks the D form. Ends that are not written are not given here. Peptide text beside a SMILES is read from it. I, II: the chains in the order shown. Actinocin(9to1) = Cc1c2oc3c(C)ccc(C(=O)[*:1])c3nc-2c(C(=O)[*:2])c(N)c1=O; NMeV = CN[C@H](C(=O)O)C(C)C; Sar = CNCC(=O)O

Experiments:
[1] = in vivo; cited from earlier work
[2] = cited from earlier work
[3] = oral radioactive lomustine, about 30 mg/m^2 to 100 mg/m^2; cited from earlier work
multiple myeloma = conditions: oral administration; cited from earlier work
[4] = cited from earlier work; for plasma protein binding: in vivo
[5] = target: T1, ErbB-1 receptor from human carcinoma A431 cells (Homo sapiens, UniProt P00533); experiment: ELISA, immobilized ErbB-1; assay type: binding; conditions: 100 ng protein per well; biotinylated peptide in 1:2 serial dilutions; OD 405 nm
T1 construct: ErbB-1 receptor from human carcinoma A431 cells; purchased Sigma #E-2645; host or cells: A431 human carcinoma cells (endogenous receptor, isolated by the vendor)

ErbB-2-ECD [6] = target: T2, ErbB-2-ECD (Homo sapiens, UniProt P04626); experiment: ELISA, immobilized ErbB-2-ECD
Method: ELISA. […] Wells were subsequently incubated with biotinylated peptide added to the wells by serial dilutions (1:2) at RT for 2 hr. […] The pNPP reaction was stopped with 3M NaOH. Optical density was measured at 405 nm in a microplate reader. All assays were performed at least three times in triplicate wells. Values are reported as an average of absorbence ±SD.

[7] = tested on: BSA, bovine asialofetuin, and human IgG; experiment: Immunoblot analysis, control proteins; assay type: binding; conditions: 6.25-50 ng on nitrocellulose, biotinylated peptide
Text: Binding activity of p6.1 peptide.

soluble ErbB-2-ECD = target: T3, soluble ErbB-2-ECD (Homo sapiens, UniProt P04626); experiment: Fluorescence quenching titration of ErbB-2-ECD; assay type: binding; conditions: saturation conditions; excited at 300 nm, monitored at 350 nm
T3 construct: Purification and characterization of the recombinant extracellular domain of ErbB-2; made in house
Method: Fluorescence assay. The fluorescence titration studies were carved out using a SLM Aminco spectrofluorometer interfaced to a DEL 433/L PC running SLM Aminco 8100 series 2 software. The titrations were performed at 25° C. with varying amounts of peptide added to a fixed ErbB-2-ECD concentration (200-600 nM) in 2 ml of phosphate buffered saline (pH=7.4). Each measurement was collected for 5-20 sec after 1-2 min pre-equilibration. The excitation shutter remained closed during pre-equilibration of the sample and was opened only during data acquisition in order to minimize photobleaching of the sample. The fluorescence measurements were corrected for dilutions and photobleaching of ErbB-2-ECD. Values reported are an average of three independent measurements. […]
Fluorescence quenching studies were performed in order to evaluate the equilibrium dissociation constant of p6.1 to the soluble Erb-2-ECD. Intrinsic tryptophan fluorescence of the protein was monitored as a function of peptide concentration. Since p6.1 peptide contains a tyrosine residue, samples were excited at 300 nm and monitored at 350 nm to minimize the influence of tyrosine emission on tryptophan fluorescence. […] Theoretical curves were generated for the percentage of fluorescence quenching as a function of total peptide concentration (FIG. 2C).

ErbB-2-ECD [8] = target: T2, ErbB-2-ECD; conditions: 6.25-50 ng protein on nitrocellulose; biotinylated peptide, 2 hrs RT
Method: Immunoblot analysis of binding activity of the p6.1 peptide. […] After washing three times with PBS, the membrane was incubated with 100 μg biotinylated peptide for 2 hrs at RT.
Binding activity of p6.1 peptide. The binding specificity of synthetic p6.1 peptide to recombinant ErbB-2-ECD was examined by immunoblot and ELISA procedures. Immunoblot analysis was performed to compare the binding activity of the p6.1 peptide to ErbB-2-ECD and several other non-ErbB-2 related proteins. Purified recombinant ErbB-2-ECD as well as BSA, bovine asialofetuin, and human IgG were spotted on a nitrocellulose membrane at various amounts and exposed to the biotinylated p6.1 peptide.

ErbB-2-ECD [9] = target: T2, ErbB-2-ECD; experiment: Affinity selection of phage display library; assay type: binding; design: Purification and characterization of the recombinant extracellular domain of ErbB-2; made in house; conditions: 100 clones sequenced after four rounds of affinity selection; F3-6 library
Method: Affinity Selection. […] Biotinylated antigen was incubated with streptavidin coated plates for 2 hours at 4° C. In first and second round of selection 10 μg of biotinylated antigen per plate was added, in third round amount of antigen was decreased to 1 μg, and for fourth round of selection 0.1 μg of antigen was used. Unoccupied biotin-binding sites were blocked with 0.1 mM biotin. Phage was incubated with antigen for 4 hrs at RT. Plates were washed 10 times with TPBS to remove unbound phage. Bound phage was eluted with elution buffer (0.1 M HCl, pH is adjusted to 2.2 with glycine, 1 mg/ml BSA, 0.1 mg/ml phenol red) at RT during 10 min. […] After each round, except the last, the eluate of the bound phage was propagated and used as input for the next round. Individual clones were characterized by DNA sequencing after the fourth round of selection.
A random 6-amino acid peptide bacteriophage display library was affinity selected against the ErbB-2-ECD to identify novel peptide-ligands.

[10] = tested on: MDA-MB-435 human breast carcinoma cells; experiment: Direct cell binding assay, MDA-MB-435; assay type: cell-based; conditions: fixed, non-permeabilized cells; biotinylated peptide 100 μM; antibody 1:100
Method: (§1) Cell Binding Assay. […] When cultures reached approximately 60-70% confluence, the cells were briefly washed with PBS, fixed with 4% formaldehyde solution in PBS for 30 min but not permeabilized, and preblocked for 1 hr with 2% bovine serum albumin (BSA) solution in PBS at 37° C. The cultivation chambers were removed and cells were incubated for 2 hr with solution of Neu (9G6) anti-ErbB-2 mouse monoclonal antibody (Santa Cruz Biotechnology) diluted 1:100 and biotinylated peptide (100 μM) in 2% solution BSA in PBS. The slides were washed three times with PBS followed by 1 hr incubation with Lissamine Rhodamineconjugated donkey anti-mouse IgG (Jackson ImmunoResearch Laboratories) and streptavidin-AMCA-S conjugate (Molecular Probes) in 2% BSA in PBS. After additional washes with PBS, the slides were mounted and analyzed by fluorescent microscopy using Rhodamine and UVA filter sets.
(§2) Direct Cell Binding Assay. The ability of the p6.1 to recognize cultured human cancer cells expressing native conformation of the ErbB-2 was examined.

[11] = tested on: T-24 human bladder carcinoma cells; experiment: Direct cell binding assay, T-24 (negative control); assay type: cell-based; conditions: biotinylated peptide 100 μM, antibody 1:100
Method: Cell Binding Assay. DU-145 (human prostate adenocarcinoma), MDA-MB-435 (human breast carcinoma), and T-24 (human bladder carcinoma) cells were grown directly on the same microscope slide using a 4 well Lab-Tek II chamber slide system (Nalge Nunc). When cultures reached approximately 60-70% confluence, the cells were briefly washed with PBS, fixed with 4% formaldehyde solution in PBS for 30 min but not permeabilized, and preblocked for 1 hr with 2% bovine serum albumin (BSA) solution in PBS at 37° C. The cultivation chambers were removed and cells were incubated for 2 hr with solution of Neu (9G6) anti-ErbB-2 mouse monoclonal antibody (Santa Cruz Biotechnology) diluted 1:100 and biotinylated peptide (100 μM) in 2% solution BSA in PBS. The slides were washed three times with PBS followed by 1 hr incubation with Lissamine Rhodamineconjugated donkey anti-mouse IgG (Jackson ImmunoResearch Laboratories) and streptavidin-AMCA-S conjugate (Molecular Probes) in 2% BSA in PBS. After additional washes with PBS, the slides were mounted and analyzed by fluorescent microscopy using Rhodamine and UVA filter sets.
Direct Cell Binding Assay. The ability of the p6.1 to recognize cultured human cancer cells expressing native conformation of the ErbB-2 was examined. High levels of ErbB-2 expression on DU-145 human prostate carcinoma cells has been reported previously (Zhau et al., 1992). […]

[12] = tested on: DU-145 human prostate carcinoma cells; experiment: Direct cell binding assay, DU-145; assay type: cell-based; conditions: fixed, non-permeabilized cells; biotinylated peptide 100 μM; antibody 1:100
Method: as §1, §2

Cc1c2oc3c(C)ccc(C(=O)N[C@@H]4C(=O)N[C@H](C(C)C)C(=O)N5CCC[C@H]5C(=O)N(C)CC(=O)N(C)[C@@H](C(C)C)C(=O)O[C@@H]4C)c3nc-2c(C(=O)N[C@@H]2C(=O)N[C@H](C(C)C)C(=O)N3CCC[C@H]3C(=O)N(C)CC(=O)N(C)[C@@H](C(C)C)C(=O)O[C@@H]2C)c(N)c1=O [Actinomycin D] (I: T[dV]P[Sar][NMeV] / II: T[dV]P[Sar][NMeV]; ester I:1-I:C, II:1-II:C; linker I:N-II:N via Actinocin(9to1))
passage of the blood-brain barrier [1]: does not pass

O=NN(CCCl)C(=O)NCCCl [Carmustine, 1,3 bis(2-chloroethyl)-1-nitrosourea]
solubility in water [2]: poorly soluble

O=NN(CCCl)C(=O)NC1CCCCC1 [Lomustine, 1-(2-chloro-ethyl)-3-cyclohexyl-1 nitrosourea]
radioactivity excreted as degradation products within 24 hours [3]: about half

N[C@@H](Cc1ccc(N(CCCl)CCCl)cc1)C(=O)O [Melphalan]
patients with multiple myeloma showing a favorable response (multiple myeloma): one third to one half

CC[C@]1(O)C[C@@H]2CN(CCc3c([nH]c4ccccc34)[C@@](C(=O)OC)(c3cc4c(cc3OC)N(C)[C@H]3[C@@](O)(C(=O)OC)[C@H](OC(C)=O)[C@]5(CC)C=CCN6CC[C@]43[C@@H]65)C2)C1 [vinblastine]
plasma protein binding [4]: bind to plasma proteins | absorption after oral administration [4]: Unpredictable absorption

CC[C@]1(O)C[C@H]2CN(CCc3c([nH]c4ccccc34)[C@@](C(=O)OC)(c3cc4c(cc3OC)N(C=O)[C@H]3[C@@](O)(C(=O)OC)[C@H](OC(C)=O)[C@]5(CC)C=CCN6CC[C@]43[C@@H]65)C2)C1 [vincristine]
plasma protein binding [4]: bind to plasma proteins | absorption after oral administration [4]: Unpredictable absorption

KCCYSL [p6.1, chemically synthesized]
binding activity to ErbB-1 protein (ELISA) [5]: significant dose dependent binding activity | binding activity to ErbB-2-ECD (ELISA) (ErbB-2-ECD [6]; 100 ng protein per well, biotinylated peptide in 1:2 serial dilutions, OD 405 nm): significant dose dependent binding activity | competition with Neu (9G6) antibody for the same binding site on the extracellular domain (ErbB-2-ECD [6]; experimental ELISA data): do not compete | reaction with control proteins (immunoblot) [7]: did not react | maximum quenching of tryptophanyl fluorescence (soluble ErbB-2-ECD): 20% | binding to immobilized ErbB-2-ECD (immunoblot) (ErbB-2-ECD [8]): bound only ErbB-2 | % Of Clones (ErbB-2-ECD [9]): 75%

WYAWML [p6.2]
% Of Clones (ErbB-2-ECD [9]): 8%

WYSWLL [p6.3]
% Of Clones (ErbB-2-ECD [9]): 10%

biotinylated p6.1: biotinylated analog of the p6.1 peptide KCCYSL, chemically synthesized (cysteine pairing not given here; also: biotinylated, place not given here)
binding to MDA-MB-435 cells (fluorescent microscopy) [10]: bound | binding to T-24 cells (fluorescent microscopy) [11]: Neither the Neu (9G6) anti-ErbB-2 antibody, nor the biotinylated p6.1 bound | binding to DU-145 cells (fluorescent microscopy) [12]: bound
